Experimental data from patent publication US8822640B2, “Tetrameric streptavidin mutein with reversible biotin binding capability” (UTI Limited Partnership, priority 2011, dated 2014).
“Also recorded” adds a separate entry of the source. Where two headings read alike, the source gives them in different places.

Columns and labels:
[1] = BIAcore biosensor kinetic parameters of biotin binding in streptavidin muteins; conditions: for ka or kon / kd or koff / Kd: BIAcore, biotinylated IgG on chip, mutein injected; for t1/2, half-life of biotin in the SAV-biotin complex: estimated as 0.693/koff/60; for Kd: read-out: Kd (biotin binding affinity)
Protocol: The kinetic parameters for these muteins were determined using the BIAcore biosensor. Biotinylated IgG proteins were immobilized to the sensor chip and purified streptavidin muteins were injected to determine the binding properties:
(§1) Other methods. BIAcore biosensor for determining the kinetic parameters, preparation of streptavidin-agarose matrix and purification of biotinylated proteins were performed as previously described (Wu and Wong, 2005a; Wu and Wong, 2005b).

[2] = Ligand energy inspector, Molegro molecular viewer (MolDock score), biotin binding pocket of subunit A
Protocol: Replacement of residues in loop7-8 of the wild-type streptavidin results in allowing loop7-8 to become flexible and changing the relative orientation of subunits in the tetrameric structure. These structural changes lead to lowering of the biotin binding affinity in the 8-aa-loop-H127C mutein. The strength of biotin interaction with streptavidin was analyzed using the ligand energy inspector function in the Molegro molecular viewer program (Thomsen and Christensen, 2006). The more the negative value indicates the stronger interaction. […] In reference to the wild-type streptavidin, a few residues in the 8-aa-loop-H127C mutein have a little bit stronger interactions with biotin (data not shown). However, the net outcome is that the 8-aa-loop-H127C mutein has a weaker biotin binding affinity.

[3] = Binding to biotin-agarose, elution with 4 mM biotin, rebinding after dialysis
Protocol: In order to characterize these muteins, it is essential to purify each of these muteins for further analyses. […] After dialysis to remove any biotin from the pooled elution fraction, the purified muteins could rebind to the biotin-agarose matrix and could be eluted off again by 4 mM biotin in the buffer. This indicates the reversible biotin binding capability in these muteins.
Production and affinity purification of streptavidin muteins. Bacillus subtilis cells carrying the expression vectors were cultivated in super-rich medium (Wu et al., 2002) at 30° C. for 9-12 hours. Culture supernatant was collected by centrifugation and streptavidin muteins were affinity purified using biotin-agarose as described previously (Wu and Wong, 2005a).
Bound biotin in the 8-aa-loop-H127C mutein can be removed by dialysis. Purified 8-aa-loop-H127C muteins eluted from the biotin agarose by 4 mM biotin will contain bound biotin. If biotin binding is reversible, bound biotin should be removable by dialysis. Indeed, the dialyzed 8-aa-loop-H127C muteins could rebind to the biotin-agarose column and could be eluted off from the column by 4 mM biotin in the elution buffer (FIG. 5). […] Some 8-aa-loop-H127C mutein molecules could be observed in the flow-through fraction. This is probably because of overloading the column with excess muteins.

[4] = tested on: biotinylated protein G and biotinylated IgG; test: Mutein-agarose affinity matrix: purification of biotinylated proteins, matrix stability and reuse; conditions: comparison of FIGS. 7 and 10
Protocol: as §1
Stable subunit interactions in the 8-aa-loop-H127 mutein. The purified 8-aa-loop-H127C mutein can be immobilized to the agarose matrix with an estimated concentration of 3.8 mg/ml of settled agarose beads. […] Since it is likely that only one subunit in an tetrameric 8-aa-loop-H127C mutein was chemically coupled to the matrix (the other three subunits associated with the immobilized subunit via non-covalent interactions), this observation illustrates that the subunit interactions between the subunits in the tetrameric 8-aa-loop-H127C mutein were stable enough and the non-covalently associated subunits were not washed off from the column under the conditions used for the binding, washing and elution processes.
Application of the 8-aa-loop-H127C mutein-agarose matrices for purification of biotinylated protein G and biotinylated IgG. […] The bound biotinylated proteins could be eluted off from the column using 4 mM biotin (FIGS. 7 and 8).

[5] = literature values, cited from earlier work
[6] = known value, cited from earlier work

6-aa-loop mutein: streptavidin mutein with engineered loop7-8 D S N G S G (SEQ ID NO: 16) (DSNGSG; listed as Bacillus subtilis)
ka or kon [1]: 24300 M⁻¹ s⁻¹
kd or koff [1]: 7.59e-05 s⁻¹
t1/2, half-life of biotin in the SAV-biotin complex [1]: 152 min

8-aa-loop-H127C mutein: tetrameric streptavidin mutein, loop7-8 replaced by D S S N G S D G, with H127C mutation (SEQ ID NO: 14) (DSSNGSDG; listed as Bacillus subtilis)
ka or kon [1]: 22100 M⁻¹ s⁻¹
kd or koff [1]: 0.000428 s⁻¹
Kd [1]: 19 nM
t1/2, half-life of biotin in the SAV-biotin complex [1]: 27 min
Difference (wild-type − mutein), Asn 23 ([2]; residue contribution): −1.1
Difference (wild-type − mutein), Asp128 ([2]; residue contribution): −3.3
Difference (wild-type − mutein), Leu 25 ([2]; residue contribution): −0.8
Difference (wild-type − mutein), Lys 121 (from subunit D) ([2]; residue contribution): −1.3
Difference (wild-type − mutein), Ser 45 ([2]; residue contribution): −1.4
Difference (wild-type − mutein), Trp 120 (from subunit D) ([2]; residue contribution): −10.5
Difference (wild-type − mutein), MolDock score ([2]; total): −14.4
reversible biotin binding [3]: can bind to biotin-agarose and can be eluted off from the matrix by 4 mM biotin; also recorded: biotin binds to this protein in a reversible manner
binding capacity of the matrix for biotinylated protein G [4]: much better binding capacity than the matrix with the Roche streptavidin mutein

W120A mutein: streptavidin mutein with Trp-120 changed to alanine [reference compound]
Kd ([5]; read-out: dissociation constant (Kd) for biotin): 3 nM

Wild-type streptavidin: 52,800 dalton tetrameric protein from Streptomyces avidinii, SEQ ID NO:1
dissociation constant (Kd) for biotin [5]: 10^−13 to 10^−14 M
isoelectric point (pI) [6]: ~5
isoelectric point (pI) ([6]; listed as natural streptavidin): 5-6

ΔWHC: streptavidin mutein with Trp-120 deleted (loop T T E A N A K) and H127C mutation (SEQ ID NO: 13) (TTEANAK; listed as Bacillus subtilis)
ka or kon [1]: 49600 M⁻¹ s⁻¹
kd or koff [1]: 0.0004 s⁻¹
Kd ([1]; listed as ΔW-HC): 8.1 nM
Kd [1]: ~1 nM
t1/2, half-life of biotin in the SAV-biotin complex [1]: 28.9 min
